pIC50: −log10 of the molar value.
Key:
E. coli RNase P = assay: RNase P activity assay (ptRNA processing), in-vitro reconstituted E. coli RNase P; format: biochemical; conditions: for inhibition of RNase P processing activity: radiolabeled ptRNA Tyr su3+ substrate, FIG. 3; for effect of poly A RNA on ability to inhibit E. coli RNase P: as much as 1 μM poly A RNA added; for pIC50: initial reaction velocities at increasing inhibitor concentrations, FIG. 4a-b, read-out: IC50, inhibition of E. coli RNase P activity
Procedure: RNase P from E. coli was prepared and purified according to Vioque, A. et al. (1988) J. Mol. Biol. 202:835-848 and Gopalan, V. (1997) J. Mol. Biol. 267:818-829.
ptRNA^Tyrsu3+ was prepared by in vitro transcription of FokI-digested pUC19TyrT [Vioque, A. et al. (1988) J. Mol. Biol. 202:835-848].
(§1) RNase P activity was determined in the presence or absence of AAC inhibitors suspended in 50 mM Tris-Hcl (7.2), 5 % (w/v) polyethylene glycol 8000, 1 mM NH4Cl, 10 mM spermidine, 10 mM MgCl2. Reactions were carried under multiple-tumover conditions (for example, 100 nM of radio-labeled ptRNA^Tyrsu3+ and 0.5 nM E. coli RNase P holoenzyme).
Following holoenzyme assembly, AAC inhibitors were added to the reaction mixture and incubated for 5 minutes prior to the addition of [^32P]-ptRNA^Tyrsu3+ substrate. Reactions were allowed to proceed for the indicated times and were terminated by adding a quenching dye [7 M Urea, 10 mM EDTA, 10% (v/v) phenol]. Reaction products were resolved by gel electrophoresis (8% polyacrylamide/7 M Urea) and auto-radiograms were obtained.
(§2) Extent of substrate cleavage was quantified using a PhosphorImager (Molecular Dynamics) and ImageQuant softwares.

[1] = system: RNase P derived from N. gonnorhoeae; assay: RNase P activity assay (ptRNA processing), reconstituted N. gonnorhoeae RNase P; format: biochemical, Neisseria gonnorhoeae; conditions: FIG. 3
Procedure: (§3) Polynucleotide sequences of Neisseria gonnorhoeae, Porphyromonas gingivalis and Streptococcus pneumoniae (SEQ ID NOS: 1, 3 and 5, respectively) expressing amino acid (SEQ ID NOS: 2, 4 and 6, respectively) subunits of RNase P were PCR amplified using standard PCR methodology. The genes encoding the RNA subunit of RNase P were cloned into pUC19 under the transcriptional control of a T7 RNA polymerase promoter. T7 RNA polymerase-mediated run-off in vitro transcription was performed on individual clones to generate the respective RNase P RNAs, which were then purified using Quick Spin columns. cDNAs encoding the protein subunits of the various bacterial species were subcloned into either expression vectors: pCRT7TOPO or pBAD (Invitrogen, Carlsbad, Calif.). Proteins were over-expressed in E. coli as His6-tagged fusion proteins and purified to homogeneity using a combination of cation exchange and immobilized metal affinity chromatography.
as §1, with “holoenzyme). […]” for “holoenzyme).”
as §2

[2] = system: RNase P derived from S. pneumoniae; assay: RNase P activity assay (ptRNA processing), reconstituted S. pneumoniae RNase P; format: biochemical, Streptococcus pneumoniae; conditions: FIG. 3
Procedure: as §3
as §1, with “holoenzyme). […]” for “holoenzyme).”
as §2

[3] = two single doses of 25 mg/kg body weight for the duration of two hours; cited from earlier work
human RNase P = assay: Activity of partially purified human RNase P (ptRNA processing); format: biochemical; conditions: FIG. 5; for inhibition of human RNase P: 7.5 μM; for effect on human RNase P activity: concentrations 10-fold greater than the IC50 values for E. coli RNase P
Procedure: In order to determine if the AAC inhibitors of the present invention cross-react with human RNase P, the activity of a partially purified human enzyme was tested in the absence or presence of various concentrations of NeoR and […].

[4] = target: various bacterial RNase P; assay: RNase P activity assay, various bacterial RNase P; format: biochemical; conditions: concentration range
Procedure: as §3
as §1, with “holoenzyme). […]” for “holoenzyme).”
as §2

[5] = system: RNase P derived from P. gingivalis; assay: RNase P activity assay (ptRNA processing), reconstituted P. gingivalis RNase P; format: biochemical, Porphyromonas gingivalis; conditions: FIG. 3
Sequence of RNase P derived from P. gingivalis (as listed by the source): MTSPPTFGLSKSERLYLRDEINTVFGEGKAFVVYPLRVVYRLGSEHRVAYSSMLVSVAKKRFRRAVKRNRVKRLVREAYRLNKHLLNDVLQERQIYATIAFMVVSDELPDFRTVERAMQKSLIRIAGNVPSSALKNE
Procedure: as §3
as §1, with “holoenzyme). […]” for “holoenzyme).”
as §2

[6] = system: RNP complex formed between HIV TAR RNA and Tat-derived peptide; conditions: 10-fold excess of tRNA; cited from earlier work

Compound | inhibition of RNase P specific activity (E. coli RNase P; 10-fold excess concentration over the ptRNA substrate, FIG. 6) | inhibition of RNase P processing activity ([1]; 500 nM NeoR) | inhibition of RNase P processing activity ([2]; 500 nM NeoR) | inhibition of RNase P processing activity (E. coli RNase P; 500 nM NeoR) | effect of poly A RNA on ability to inhibit E. coli RNase P (E. coli RNase P; FIG. 6) | pIC50 (E. coli RNase P) | IC50 fold lower than that of the parental aminoglycoside (E. coli RNase P; versus literature value of parental aminoglycoside (Mikkelsen 1999)) | toxicity to mice [3] | inhibition of human RNase P (human RNase P) | effect on human RNase P activity (human RNase P) | IC50 for inhibition of various bacterial RNase P [4] | susceptibility of RNase P activity to the inhibitor ([5]; 500 nM NeoR) | inhibition of RNase P processing activity ([1]; 1500 nM R3G) | inhibition of RNase P processing activity ([2]; 1500 nM R3G) | effect of tRNA on ability to disrupt the TAR RNA/Tat-derived peptide complex [6] | inhibition of RNase P processing activity (E. coli RNase P; 1500 nM R3G) | susceptibility of RNase P activity to the inhibitor ([5]; 1500 nM R3G)
N=C(N)NCCC[C@H](N)C(=O)O [L-Arginine, reference compound] | did not inhibit | – | – | – | – | – | – | – | – | – | – | – | – | – | – | – | –
hexa-argininamido-neomycin B [NeoR] | – | nearly complete inhibition | nearly complete inhibition | nearly complete inhibition | failed to alter | 6.90 | 100 fold | not toxic | nearly complete inhibition | largely unaffected | sub-micromolar | less susceptible | – | – | – | – | –
triargininamido-gentamycin C [R3G] | – | – | – | – | failed to alter | 6.52 | – | – | nearly complete inhibition | largely unaffected | sub-micromolar | – | nearly complete inhibition | nearly complete inhibition | no effect | nearly complete inhibition | less susceptible

From patent US20050085432A1, “Methods of using conjugates of saccharides and acetamidino or guanidino compounds for treating bacterial infections” (priority 2001, published 2005)
